Reference: ChEMBL document CHEMBL1128409, “Potent inhibitors of proteasome” (J Med Chem, 1995)
Where a SMILES comes first, the peptide text is derived from it. The star is where a group is joined. MeOSuc = COC(=O)CCC(=O)*

These molecules were tested against 20S proteasome (assay: Compound was evaluated for inhibitory activity against 20S proteasome from human liver and brain).
Assay type: subcellular
CC(C)CC(C=O)NC(=O)C(CCC/N=C(\N)N[N+](=O)[O-])NC(=O)C(CCCCCCCCN1C(=O)c2ccccc2C1=O)C1CCCC1 (configuration not stated) was tested, and the IC50 was 2 nM. COC(=O)CCCCCCCC(=O)N[C@H](CCC/N=C(\N)NS(=O)(=O)c1c(C)c(C)c2c(c1C)CCC(C)(C)O2)C(=O)NC(C=O)CC(C)C (some centres not stated) showed an IC50 greater than 3000 nM. Work on COC(=O)CCCCCCCC(=O)NC(CCC/N=C(\N)NS(=O)(=O)c1c(C)cc(OC)c(C)c1C)C(=O)NC(C=O)CC(C)C (configuration not stated) yielded an IC50 of 95 nM. In the case of CC(C)CC(C=O)NC(=O)C(CCC/N=C(\N)N[N+](=O)[O-])NC(=O)C(CCCCCCCCC#N)C1CCCC1 (configuration not stated), the IC50 is reported as 6 nM. With COC(=O)CCCCCCCC(=O)NC(CCC/N=C(\N)N[N+](=O)[O-])C(=O)NC(C=O)CC(C)C (configuration not stated) the IC50 was 40 nM. Molecule COC(=O)CCC(=O)N[C@@H](CCC(=O)O)C(=O)N[C@H](C(=O)N[C@@H](CCCCN)C(=O)N[C@@H](Cc1ccccc1)C(=O)O)C(C)C (MeOSuc-EVKF-OH) has an IC50 of 1000 nM. With COC(=O)CCCCCCCC(=O)NC(CCC/N=C(\N)NS(=O)(=O)c1c(C)c(C)c2c(c1C)CCC(C)(C)O2)C(=O)NC(C=O)CC(C)C (single isomer, unassigned) the IC50 was 20 nM.
